The results in this text go back to patent publication US12521353B1, “Encapsulated resveratrol (RSV) nanoparticles” (priority 2024, dated 2026).

Entries after “also recorded” stand apart in the source; their conditions may differ.

Format in all cases: in vivo
For one data set, the system named is Bax. The experiment in a line: IHC assay of apoptosis-related factor Bax in testis of rats exposed to ZEA. As to conditions: rat testis. The source says:
(§1) As described herein, the therapeutic efficacy of the encapsulated RSV nanoparticles can be evaluated based on immunohistochemical assessment of apoptosis-related factors (Bax and Bcl-2) in the testis and the gene expression of constitutive androstane receptor (CAR), a well-known xenobiotic-sensing nuclear receptor in the liver, of rats exposed to a fungal mycotoxin, zearalenone (ZEA). The encapsulated RSV nanoparticles reversed the toxic effects of the mycotoxin, as reflected by intense Bcl-2 immunoreactivity and negligible Bax immunoreactivity. Further, the expression of the CAR gene was enhanced by treatment with the present RSV nanoparticles.
(§2) IHC assay was conducted to estimate the toxic impact of ZEA and the ameliorative effect of RSV and its nano-formulation on the expression of apoptosis-related factors (Bax and Bcl-2).

The next data set has as its system Bcl-2. The data set can be described thus: IHC assay of apoptosis-related factor Bcl-2 in testis of rats exposed to ZEA. As to conditions: rat testis.
Source text: as §1
Testes sections stained immunohistochemically against Bcl-2 was noticeably higher (brown color) in control group that received distilled water (FIG. 5A), compared with the group that received 0.1 mg/kg of ZEA that have almost no Bcl-2 immunoreactivity (FIG. 5B). […] High Bcl-2 immunoreactivity was detected in the groups that received 10 mg/kg RSV or 10 mg/kg RSV NPs (FIGS. 5E and 5F).

The subject of data set [1] is apoptosis-related factors (Bax and Bcl-2). The data set can be described thus: Overall immunohistochemical assessment of apoptosis-related factors (Bax and Bcl-2), mycotoxin-induced apoptosis in rat testis. To be noted: testis of rats exposed to ZEA and treated.
Source text: as §1, §2
Testes sections stained immunohistochemically against Bcl-2 was noticeably higher (brown color) in control group that received distilled water (FIG. 5A), compared with the group that received 0.1 mg/kg of ZEA that have almost no Bcl-2 immunoreactivity (FIG. 5B). […] High Bcl-2 immunoreactivity was detected in the groups that received 10 mg/kg RSV or 10 mg/kg RSV NPs (FIGS. 5E and 5F). […]

Setting [2] is: 0.1 mg/kg ZEA + 10 mg/kg treatment.
Where [3] appears, read: 10 mg/kg alone, no ZEA, 10 mg/kg.

Regarding `Oc1ccc(C=Cc2cc(O)cc(O)c2)cc1` [RSV, Resveratrol], the Bax immunoreactivity entry with Bax (setting [2]) was “moderate to low”; in the data set on Bax (setting [3]), “negative; also recorded: Almost no”. The Bcl-2 immunoreactivity result with Bcl-2 (setting [2]) is “moderate”; in the data set on Bcl-2 (setting [3]) it was “intense and High”. For the same compound, the “effect on apoptosis induced by the mycotoxin (expression of Bax and Bcl-2 factors)” value in data set [1] is recorded as “effectively reduced”.

For `C[C@H]1CCCC(=O)CCC/C=C/c2cc(O)cc(O)c2C(=O)O1` [ZEA, zearalenone], in the data set on Bax (0.1 mg/kg ZEA alone), the Bax immunoreactivity entry is reported as “intense”. The Bcl-2 immunoreactivity entry with Bcl-2 (0.1 mg/kg ZEA alone, 0.1 mg/kg) was “weak and almost no”.
